What was measured:
NCI-H1581 cells = experiment: Incucyte proliferation (confluence over time), prolonged treatment of NCI-H1581 cells; format: cell-based; conditions: 1 microM each agent
Description: (§1) Therefore, NCI-H1581 cells were plated onto 10 cm Collagen I coated plates and placed in an incubator at 37° C., 5% CO2. […] In the case of the parental cells with or without DMSO control, when the cells reached the confluence close to 100% they were trypsinized and re-plated back on the plate. […] After about 3 weeks from the initial treatment, cells were taken out of the plate by trypsinization and passaged on new plate for further expanding. […] (test 1)
The proliferation of the cells was followed using the Incucyt machine, measuring the confluence of the cells over time.

[1] = test system: resistant NCI-H1581 xenografts; experiment: In vivo study, resistant NCI-H1581 xenografts; parameters: species or system Athymic nude mice; conditions: compound A 25 mg/kg p.o. QD for 37 d
Description: Athymic nude mice were inoculated with resistant NCI-H1581 cells (10e^6 cells/200 μl with matrigel, ratio 1:1, into the inguinal region of the mice).
All mice (84) were put into groups (4) and treated from the day of the cell injection.
The mice were treated orally (po), normal volume (250 μl/25 g) once daily and this for 37 days (QD×37). Measurement of the tumor volume was done at day 0, 5, 12, 15, 20, 23, 27, 30, 33, 37.
At day 37 all animals were sacrificed.

[2] = test system: Parental, unsorted H1581 cells; experiment: Incucyte live cell imaging proliferation, parental unsorted H1581 cells; format: cell-based; parameters: dose or concentration left out as unconfirmed; conditions: four days
Description: Inhibition of growth of H1581^MET(+) cells by combination of FGFR and MET inhibitors. Parental, unsorted H1581 cells, and sorted H1581^Met(+) cells, subpopulation of H1581 cells that have high Met expression, were plated at 75000 cells per well in 24 well plate. […] Images were acquired every two hours. Proliferation of cells was presented as the mean of percentage of confluence±SD (n=2).

[3] = test system: most sensitive cancer cell lines; experiment: Alamar blue cell based proliferation assay, most sensitive cancer cell lines
Description: (§2) Cells were seeded in 180 μl of medium at optimized cell densities in black 96 well plates with clear flat bottom. The outer wells were filled with 180 μl of medium. Cells were incubated for 24 hours at 37° C. and 5% CO2.
(§3) Next day compound dilutions were prepared in a 96 well plate with round bottom (Corning #3365). A 50× dilution of the compound was prepared in medium, 4 μl of compound stock in 196 μl of medium in a 96 well plate (Corning #3585).
(§4) Compound/medium plates were placed on a shaker for 10 minutes and then 20 μl of compound in medium was added to the cells (10× dilution). Cells were incubated at 37° C. and 5% CO2 for 4 days until alamarBlue® readout.
(§5) After 4 days of incubation with compound: Add 40 μl of alamarBlue® ready to use mix to each well. Incubate plates at 37° C. and 5% CO2. Measure plates after 4 or 6 hours of incubation (depends on cell line). Shake plates and measure RFU at ex.: 544 nm and em.: 590 nm
(§6) The alamarBlue® Assay incorporates a fluorometric/colorimetric growth indicator based on detection of metabolic activity. Specifically, the system incorporates an oxidation-reduction (REDOX) indicator that both fluoresces and changes color in response to chemical reduction of growth medium resulting from cell growth.

Met oncogene = experiment: Microarray gene expression profiling of resistant versus parental NCI-H1581 cells; format: cell-based; conditions: 1 microM, 1 day, 1 week and 2 weeks
Description: as §1

parental NCI-H1581 cells = experiment: Alamar blue proliferation assay, parental NCI-H1581 cells; format: cell-based; conditions: for IC50: 4 days incubation
Description: as §1
(§7) Therefore the parental and resistant cells were profiled on phosphoRTK (receptor tyrosine kinase) arrays, and also for Met total protein expression and phosphorylation. The sensitivity of the cells to selected Met inhibitors (compound C and D) in the Alamar blue proliferation assay was also tested.
as §2, §3, §4, §5, §6

[4] = test system: resistant NCI-H1581 cells; experiment: Alamar blue proliferation assay, resistant NCI-H1581 cells; format: cell-based; conditions: for IC50: Resistant cells, 4 days incubation, repeated experiments
Description: The insensitive cells were isolated and profiled with the aim to determine the active signaling pathways that act as drivers for their survival and/or proliferation. Therefore, NCI-H1581 cells were plated onto 10 cm Collagen I coated plates and placed in an incubator at 37° C., 5% CO2. […] In the case of the parental cells with or without DMSO control, when the cells reached the confluence close to 100% they were trypsinized and re-plated back on the plate. In the compound treated plates outgrowth of resistant clones were observed. After about 3 weeks from the initial treatment, cells were taken out of the plate by trypsinization and passaged on new plate for further expanding. […] (test 1)
as §7, with “tested. […] Parental NCI-H1581 cells had very low detectable levels of Met protein, and no signal for Met protein phosphorylation (see FIG. 1).” for “tested.”
as §2, §3, §4, §5, §6

Met protein = experiment: Western blotting of Met phosphorylation in resistant NCI-H1581 cells; format: cell-based; conditions: 300 nM, 30 minutes
Description: FIG. 1: Western blotting of protein lysates derived from parental and resistant NCI-H1581 cells treated without (−) or with (+) Met inhibitor, 300 nM compound C, for 30 minutes.
as §7, with “tested. […] Parental NCI-H1581 cells had very low detectable levels of Met protein, and no signal for Met protein phosphorylation (see FIG. 1).” for “tested.”

[5] = Homo sapiens, NCI-H1581, 96 h, Parental cells

Row | IC50 ([4]; Homo sapiens, NCI-H1581, 96 h) [nM] | IC50 [4] [nM] | Structure (SMILES) | proliferation of the parental NCI-H1581 cells (in words) (parental NCI-H1581 cells) | IC50 (parental NCI-H1581 cells; [5]) [nM] | proliferation of the resistant NCI-H1581 cells (in words) [4] | also measured
1 |  |  | COc1cc(OC)cc(N(CCNC(C)C)c2ccc3ncc(-c4cnn(C)c4)nc3c2)c1 [compound A, N-(3,5-dimethoxyphenyl)-N′-(1-methylethyl)-N-[3-(1-methyl-1H-pyrazol-4-yl)quinoxalin-6-yl]ethane-1,2-diamine] |  |  |  | emergence of resistance (outgrowth of insensitive cells) (NCI-H1581 cells; continuous treatment): after about three weeks emerging outgrowth of compound insensitive cells was observed; tumor growth [1]: did not have effect on tumor growth; cell growth (confluence) [2]: equally inhibited
2 |  |  | COc1cc(OC)c(F)c(N(Cc2ncc[nH]2)c2ccc3ncc(-c4cnn(C)c4)nc3n2)c1 [compound B, N-(2-fluoro-3,5-dimethoxyphenyl)-N-(1H-imidazol-2-ylmethyl)-3-(1-methyl-1H-pyrazol-4-yl)pyrido[2,3-b]pyrazin-6-amine] |  |  |  | IC50 [3]: < 10 nM; Met oncogene expression (microarray) (Met oncogene): upregulated in a time dependent manner
3 |  |  | Cn1cc(-c2ccc3nnc(C(F)(F)c4ccc5ncccc5c4)n3n2)cn1 [compound C, 6-{Difluoro[6-(1-methyl-1H-pyrazol-4-yl)[1,2,4]triazolo[4,3-b]pyridazin-3-yl]methyl}quinoline] | but not of the parental NCI-H1581 cells | > 30000 | strongly inhibited | Met phosphorylation (Met protein): down regulated significantly
4 | 341 | 444 | FC(F)(c1ccc2ncccc2c1)c1nnc2ccc(-c3ccncc3)nn12 [compound D, 6-[Difluoro(6-pyridin-4-yl[1,2,4]triazolo[4,3-b]pyridazin-3-yl)methyl]quinoline] | but not of the parental NCI-H1581 cells | > 10000 | strongly inhibited | IC50 (parental NCI-H1581 cells; Homo sapiens, NCI-H1581, 96 h, Parental cells + DMSO): > 30000 nM; proliferation (confluence of the cells over time) (NCI-H1581 cells): did not impact the proliferation
5 | 198 | 165 | C[C@@H](Oc1cc(-c2cnn(C3CCNCC3)c2)cnc1N)c1c(Cl)ccc(F)c1Cl [crizotinib, reference compound] |  | 6910 |  | IC50 (parental NCI-H1581 cells; Parental cells): 4950 nM

From patent publication US10716787B2, “Combinations” (ASTEX THERAPEUTICS LTD, priority 2014, dated 2020)
